{"source": "patent US20260215432A1", "about": "“ANTIMICROBIAL CONJUGATED OLIGOELECTROLYTES AND METHODS THEREOF” (National University of Singapore, priority 2023, published 2026)", "key": {"[1]": {"system": "methicillin-resistant S. aureus (USA300)", "assay": "MIC of compounds 1-5", "format": "cell-based", "details": "USA300, Table 7", "procedure": "(§1) Minimum inhibitory concentrations of COEs were determined through a broth microdilution method in accordance with the Clinical and Laboratory Standards Institute (CLSI) guidelines M07-A10. A single bacterial colony was isolated from an overnight culture and grown to mid-log phase (OD600~0.8). Compounds were prepared as a stock solution in DMSO and diluted in a sterile flat-bottom 96-well plate in CA-MHB. Subsequent concentrations were prepared by two-fold dilution of the initial solution. An equivalent volume of bacteria was added to the compound to a final concentration of 5×10^5 cfu/mL. Plates were incubated at 37° C. for 16-18 hours, and read at OD600 using a microplate reader (TECAN Spark®). […] MIC values were determined for each compound in triplicate. For each test, Polymyxin B (Gram-negative) or vancomycin (Gram-positive) was used as a positive control."}, "[2]": {"system": "E. coli. K12 (ATCC 10798)", "assay": "MIC, broth microdilution in CA-MHB", "format": "cell-based", "details": "for MIC E. coli K12: ATCC 10798, Table 7", "procedure": "(§2) Antimicrobial activity was screened against a range of pathogens made up of clinically relevant ESKAPE pathogens by determination of the minimum inhibitory concentration (MIC) in cation-adjusted Mueller-Hinton broth (CA-MHB).\nas §1, with “triplicate.” for “triplicate. For each test, Polymyxin B (Gram-negative) or vancomycin (Gram-positive) was used as a positive control.”"}, "[3]": {"details": "phosphate-buffered saline; below 10 μg mL^−1 estimated by turbidimetric screening", "quoted_text": "The solubility of all the TPP derivatives was determined in phosphate-buffered saline (PBS) (Table S3)."}, "[4]": {"system": "Methicillin-resistant S. aureus (ATCC BAA1717)", "assay": "MIC, broth microdilution in CA-MHB", "format": "cell-based", "procedure": "as §2\nas §1, with “triplicate.” for “triplicate. For each test, Polymyxin B (Gram-negative) or vancomycin (Gram-positive) was used as a positive control.”"}, "[5]": {"system": "K. pneumoniae (carbapenem-resistant Enterobacterales) (ATCC BAA1705)", "assay": "MIC, broth microdilution in CA-MHB", "format": "cell-based", "details": "CA-MHB", "procedure": "as §2\nas §1, with “triplicate.” for “triplicate. For each test, Polymyxin B (Gram-negative) or vancomycin (Gram-positive) was used as a positive control.”"}, "A. baumanii (ATCC 17978)": {"system": "A. baumanii (ATCC 17978)", "assay": "MIC, broth microdilution in CA-MHB", "format": "cell-based", "details": "CA-MHB", "procedure": "as §2\nas §1, with “triplicate.” for “triplicate. For each test, Polymyxin B (Gram-negative) or vancomycin (Gram-positive) was used as a positive control.”"}, "[6]": {"system": "E. faecalis OG1RF (ATCC 47077)", "assay": "MIC, broth microdilution in CA-MHB", "format": "cell-based", "details": "CA-MHB", "procedure": "as §2\nas §1, with “triplicate.” for “triplicate. For each test, Polymyxin B (Gram-negative) or vancomycin (Gram-positive) was used as a positive control.”"}, "[7]": {"system": "P. aeruginosa (ATCC47085)", "assay": "MIC, broth microdilution in CA-MHB", "format": "cell-based", "details": "CA-MHB", "procedure": "as §2\nas §1, with “triplicate.” for “triplicate. For each test, Polymyxin B (Gram-negative) or vancomycin (Gram-positive) was used as a positive control.”"}, "S. aureus (ATCC 29213)": {"system": "S. aureus (ATCC 29213)", "assay": "MIC, broth microdilution in CA-MHB", "format": "cell-based", "procedure": "as §2\nas §1, with “triplicate.” for “triplicate. For each test, Polymyxin B (Gram-negative) or vancomycin (Gram-positive) was used as a positive control.”"}, "E. facium (ATCC 19434)": {"system": "E. facium (ATCC 19434)", "assay": "MIC, broth microdilution in CA-MHB", "format": "cell-based", "details": "CA-MHB", "procedure": "as §2\nas §1, with “triplicate.” for “triplicate. For each test, Polymyxin B (Gram-negative) or vancomycin (Gram-positive) was used as a positive control.”"}, "PA": {"system": "PA", "assay": "MIC in physiological-mimicking environments (MHB)", "format": "cell-based, P. aeruginosa", "source_text": "(§3) The complexities of the physiological environment often influence drug activity, particularly when cations in solution are implicated in their oligomerization-dependent mechanisms of action, such as for daptomycin. Binding of free drug to plasma proteins effectively reduces the available free concentration of the drug capable of killing bacteria, resulting in lower observable activity. We tested MIC values of DM4P and DM6P in the presence of human serum albumin (40 g L^−1) and high salt concentrations (Table 4). Under these conditions, the antimicrobial activity was minimally affected by these environmental factors, with MICs remaining within a 2-fold level."}, "[8]": {"system": "M. abscesses (ATCC 19977)", "assay": "MIC against mycobacterium in Middlebrook 7H9 broth", "format": "cell-based, M. abscessus", "procedure": "We also examined non-tuberculous mycobacteria (NTM). These are opportunistic pathogens that are rising in clinical significance due to their increasing prevalence and treatment difficulty. The membrane of Mycobacterium is inherently a greater antibiotic permeability barrier due to its high lipid content relative to other pathogens and long-tailed mycolic acids that contributed to its high lipophilic character. The antimicrobial activity of the TPP analogues were also evaluated against Mycobacterium in Middlebrook 7H9 broth."}, "SA": {"system": "SA", "assay": "MIC in physiological-mimicking environments (MHB)", "format": "cell-based, S. aureus", "source_text": "as §3"}, "[9]": {"system": "A549 (lung epithelial cells)", "assay": "Cytotoxicity against mammalian cell line", "format": "cell-based", "procedure": "The cytotoxicity of the TPP COEs was also tested against a mammalian cell line (A549)."}, "MRSA": {"system": "MRSA", "assay": "Resistance development by serial passaging at 0.5× MIC", "format": "cell-based, S. aureus", "procedure": "(§4) The non-specific action of membrane-active antibiotics lends itself to minimal development of resistance development due to the large metabolic burden involved, unlike traditional antibiotics with a well-defined enzymatic target. Based on this premise, we passaged bacteria incubated with DM6P, or ciprofloxacin (control), at 0.5× MIC to investigate the adaptation of bacteria towards external antibiotic stress. As a control, treatment of MRSA with ciprofloxacin gave rise to antibiotic-resistant mutants within 4 passages, see FIG. 4a. […] Combined with its broad spectrum of activity, this feature opens opportunities for the use of COE antimicrobial agents to address polymicrobial infections with a lower rate of emerging antibiotic resistance."}, "P. aeruginosa": {"system": "P. aeruginosa", "assay": "Resistance development by serial passaging at 0.5× MIC", "format": "cell-based", "procedure": "as §4"}}}
{"smiles": "[I-].[I-].c1ccc([P+](CCCCCCCCOc2ccc(/N=N/c3ccc(OCCCCCCCC[P+](c4ccccc4)(c4ccccc4)c4ccccc4)cc3)cc2)(c2ccccc2)c2ccccc2)cc1", "note": "[Compound 3]", "values": [{"measurement": "MIC MRSA", "setting": "[1]", "result": 4, "unit": "µg/mL"}, {"measurement": "MIC E. coli K12", "setting": "[2]", "result": 32, "unit": "µg/mL"}]}
{"smiles": "C(=C\\c1cc(OCCC[P+](c2ccccc2)(c2ccccc2)c2ccccc2)cc(OCCC[P+](c2ccccc2)(c2ccccc2)c2ccccc2)c1)/c1ccc(/C=C/c2cc(OCCC[P+](c3ccccc3)(c3ccccc3)c3ccccc3)cc(OCCC[P+](c3ccccc3)(c3ccccc3)c3ccccc3)c2)cc1.[I-].[I-].[I-].[I-]", "note": "[Compound 5]", "values": [{"measurement": "MIC MRSA", "setting": "[1]", "result": 32, "unit": "µg/mL"}, {"measurement": "MIC E. coli K12", "setting": "[2]", "result": 64, "unit": "µg/mL"}]}
{"smiles": "COc1cc(/C=C/c2ccc(OCCCC[P+](c3ccccc3)(c3ccccc3)c3ccccc3)c(OC)c2)ccc1OCCCC[P+](c1ccccc1)(c1ccccc1)c1ccccc1.[I-].[I-]", "note": "[DM4P]", "values": [{"measurement": "solubility in PBS", "setting": "[3]", "result": 138, "unit": "µg/mL"}, {"measurement": "MIC MRSA", "setting": "[4]; CA-MHB", "result": 2, "unit": "µg/mL"}, {"measurement": "MIC", "setting": "[4]; towards MRSA, Table 3", "result": 2, "unit": "µg/mL"}, {"measurement": "MIC KP", "setting": "[5]", "result": 8, "unit": "µg/mL"}, {"measurement": "MIC AB", "setting": "A. baumanii (ATCC 17978)", "result": 4, "unit": "µg/mL"}, {"measurement": "MIC EC", "setting": "[2]; CA-MHB", "result": 4, "unit": "µg/mL"}, {"measurement": "MIC FAE", "setting": "[6]", "result": 1, "unit": "µg/mL"}, {"measurement": "MIC PA", "setting": "[7]", "result": 8, "unit": "µg/mL"}, {"measurement": "MIC SA", "setting": "S. aureus (ATCC 29213)", "result": 2, "unit": "µg/mL"}, {"measurement": "MIC FAC", "setting": "E. facium (ATCC 19434)", "result": 1, "unit": "µg/mL"}, {"measurement": "MIC CaCl2", "setting": "PA; CaCl2 1 mM", "result": 8, "unit": "µg/mL"}, {"measurement": "MIC MgCl2", "setting": "PA; MgCl2 1.25mM", "result": 8, "unit": "µg/mL"}, {"measurement": "MIC NaCl", "setting": "PA; NaCl 300 mM", "result": 4, "unit": "µg/mL"}, {"measurement": "MIC HSA", "setting": "PA; human serum albumin 40 g L^−1", "result": 8, "unit": "µg/mL"}, {"measurement": "MIC —", "setting": "PA; no additive", "result": 8, "unit": "µg/mL"}, {"measurement": "MIC M. abscesses", "setting": "[8]", "result": 8, "unit": "µg/mL"}, {"measurement": "MIC CaCl2", "setting": "SA; CaCl2 1 mM", "result": 2, "unit": "µg/mL"}, {"measurement": "MIC MgCl2", "setting": "SA; MgCl2 1.25mM", "result": 2, "unit": "µg/mL"}, {"measurement": "MIC NaCl", "setting": "SA; NaCl 300 mM", "result": 4, "unit": "µg/mL"}, {"measurement": "MIC HSA", "setting": "SA; human serum albumin 40 g L^−1", "result": 2, "unit": "µg/mL"}, {"measurement": "MIC —", "setting": "SA; no additive", "result": 2, "unit": "µg/mL"}, {"measurement": "IC50", "setting": "[9]", "result": 9, "unit": "µg/mL"}]}
{"smiles": "O=C(O)c1cn(C2CC2)c2cc(N3CCNCC3)c(F)cc2c1=O", "note": "[ciprofloxacin, reference compound]", "values": [{"measurement": "passages until antibiotic-resistant mutants arise", "setting": "MRSA", "result": "≤ 4", "unit": "passages"}, {"measurement": "resistance development", "setting": "P. aeruginosa", "result": "this development occurred at a slower rate"}]}
